The target in this test is Tyrosinase (Agaricus bisporus). Briefly: Tyrosinase inhibition assays were performed in a 96-well microplate format using SpectraMax 340 (Molecular Devices, CA, USA) microplate reader according to method developed earlier. Particulars: pH 6.8.
For the compound `CC(=O)N1CCC(N2CCCCC2)CC1`, 29.9 µM corresponded to half-maximal inhibition (IC50).

Take `C1CCN(C2CCNCC2)CC1` [Tyrosinase Inhibitor, 1]: half-maximal inhibition (IC50) required 111 µM.

Take `Cc1ccc(CN2CCC(N3CCCCC3)CC2)cc1` [Tyrosinase Inhibitor, 4]: the IC50 is 1.72 µM. Against the preceding compound, the IC50 is about 65-fold lower.

For `O=[N+]([O-])c1ccc(S(=O)(=O)N2CCC(N3CCCCC3)CC2)cc1` [Tyrosinase Inhibitor, 8], the midpoint of inhibition, the IC50, lay at 8.76 µM.

The values above are taken from BindingDB's records for doi:10.1080/14756360500179333 (University of Karachi, 2005).
